# Test results reported in US10265276B2, “Pharmaceutical composition for preventing or treating arthritis or inflammatory disease containing 2-methoxy-4-(3-(4-methoxyphenyl)propyl-1-en-1-yl)phenol as active ingredient” (CHUNGBUK NATIONAL UNIVERSITY INDUSTRY-ACADEMIC COOPERATION …, priority 2015, dated 2019).
# System: CAIA-induced C57BL/6 mice
# Assay: Collagen antibody-induced arthritis (CAIA) model
# Type: in vivo, mouse
# Settings: 5 mg/kg, p.o. daily
# Experimental: 14. Induction of rheumatoid arthritis in C57BL/6 mice: To induce rheumatoid arthritis, anti-collagen-II mAbs (CII-Ab, Arthrogen-CIA Arthritogenic Monoclonal Antibody, #53010: Chondrex, Inc., WA, USA) were intraperitoneally (i.p.) injected into 7-week-old male mice on the first day, and 50 μg of LPS was injected on the third day. To evaluate the severity of arthritis, a scoring system was applied according to the criteria.
# 0. No erythema and swelling are observed.
# 1. Slight erythema is observed in tarsals and ankle joints.
# 2. Slight erythema and swelling are observed from an ankle joint to the midfoot.
# 3. Erythema and swelling extending from ankle joints to the metatarsals are observed.
# 4. Erythema and severe swelling were observed throughout the ankles, feet, and fingers.
# The sum of final scores was recorded daily until the sum reached 16. On the 18th day, each of the mice was anesthetized, and then located on a radiographic view box. Thereafter, a location of each of the mice was adjusted so that the mouse was disposed at a distance of 90 cm from an X-ray source. The radioanalysis on hind legs with arthritis was performed by irradiating the hind legs at […] for 0.01 seconds using an X-ray machine (BLD-150RK, Hradec Kralove, Czech Republic).
# 15. Immunohistochemical assay: An immunohistochemical assay was carried out using an avidin-biotin-peroxidase method known in the art. Each of joint tissue samples collected from the mice was fixed with formalin, and embedded in paraffin. These samples were continuously microtomed into sections with a thickness of 4 μm. Each of the sections was stained with haematoxylin/eosin (H&E), anti-COX-2 and anti-iNOS antibodies (Caymen Chemical, Ann Arbor, Mich.).
# Referring to FIG. 10(A), MMPP (5 mg/kg, p.o.) (dissolved in 100 μL of PBS including 0.5 μL of DMSO), a vehicle (a negative control), or indomethacin (5 mg/kg, p.o./dissolved in […] of PBS after the dissolution) was administered daily to 7-week-old male C57BL/6 mice for 18 days.
smiles,measurement,value
"COc1ccc2c(c1)c(CC(=O)O)c(C)n2C(=O)c1ccc(Cl)cc1 [indomethacin, reference compound]",clinical score lower than that of the CAIA group,64.8%
